Consider 21 compounds from patent US9242993B2, “Morpholino substituted bicyclic pyrimidine urea or carbamate derivatives as mTOR inhibitors” (CELLZOME LIMITED, priority 2011, dated 2016).

In one assay the target is mTOR (Homo sapiens, UniProt P42345). The experiment in a line: biochemical.
In assay [1] the target is DNA-dependent protein kinase (DNA-PK) (Homo sapiens, UniProt P78527). Kind of assay: biochemical.
For assay [2], the system named is S6RP serine-240/244 phosphorylation. Kind of assay: In vitro phospho-S6 cellular assay. The class given is cell-based. The conditions noted are these: Homo sapiens; HEK293T/17 cells, 2 hours; read-out: pS6 inhibition value (IC50), activity level. The text has this: Activation of mTOR signaling results in phosphorylation of several downstream targets. In cells, mTOR exists in two different protein complexes. The mTOR Complex-1 (mTORC1) phosphorylates and activates S6 Kinase 1 (S6K1) and S6 Kinase 2 (S6K2) (also known as p70S6K) which then phosphorylate S6 Ribosomal Protein (S6RP) (also known as RPS6)3. S6RP is phosphorylated on serine 235, serine 236, serine 240 and serine 244 by both pS6K1 and pS6K2. The mTOR Complex-2 (mTORC2) phosphorylates AKT on serine 473 which activates the AKT signaling pathway.
The assay measures a test compound's inhibition of S6RP serine-240/244 phosphorylation and inhibition of Akt serine-473 phosphorylation in human embryonic kidney derived HEK293T/17 cells (ATCC CRL-11268).
The HEK293T/17 cell line is maintained in DMEM media (Invitrogen catalogue number 41965-039) supplemented with 10% FCS at 37° C. in a 5% CO2 humidified incubator.
Cells are seeded in 96-well plates at 40,000 cells/well (pS6RP S240/244 assay) or 80,000 cells/well (pAkt S473 assay) in 90 μl growth media (DMEM, 2% FCS). Plates are incubated for 1 hour in a humidified incubator to allow the cells to adhere. Cells are treated with 8 concentrations of test compounds or DMSO alone for controls (final DMSO concentration 0.1%) and incubated at 37° C. for 2 hours. Then 20 μl of 5× concentrated lysis buffer (750 mM NaCl, 100 mM Tris pH7.4, 5 mM ADTA, 5 mM EGTA, 5% Triton X-100) is added, plates are sealed and incubated for 15 minutes at 4° C. with gentle shaking. After cell lysis, 25 μl cell lysate is transferred to a MesoScale plate coated with an antibody to pS6RP Ser240/244 (MesoScale Discovery K150DGD-3) or an antibody to pAkt Ser 473 (MesoScale Discovery K151DGD-3). Plates have been blocked before by incubation with 150 μl MesoScale Discovery Blocking Solution-A for 1 hour at room temperature followed by washing with 150 μl 1× Tris wash buffer per well. After the transfer of the cell lysate to the MSD plate, the pS6RP (or pAkt) protein is captured on the coated antibody by incubation at room temperature for 1 hour with gentle shaking. After the capture step the plate is washed three times with 150 μl of 1× Tris wash buffer per well. Then 25 μl detection antibody conjugated with a Sulfo-Tag is added and incubated for 1 hour at room temperature with gentle shaking. Subsequently the antibody solution is removed and the plate is washed 3 times with 150 μl 1× Tris wash buffer per well and 150 μl Read buffer is added. The plates are analysed on a MSD 2400 Plate Reader (MesoScale Discovery). Data analysis is performed using nonlinear regression for a sigmoidal dose-response with a variable slope.

The term IC50 denotes the point on the concentration scale where inhibition reaches its midpoint.

DNA-dependent protein kinase (DNA-PK), sequence (P78527 whole entry): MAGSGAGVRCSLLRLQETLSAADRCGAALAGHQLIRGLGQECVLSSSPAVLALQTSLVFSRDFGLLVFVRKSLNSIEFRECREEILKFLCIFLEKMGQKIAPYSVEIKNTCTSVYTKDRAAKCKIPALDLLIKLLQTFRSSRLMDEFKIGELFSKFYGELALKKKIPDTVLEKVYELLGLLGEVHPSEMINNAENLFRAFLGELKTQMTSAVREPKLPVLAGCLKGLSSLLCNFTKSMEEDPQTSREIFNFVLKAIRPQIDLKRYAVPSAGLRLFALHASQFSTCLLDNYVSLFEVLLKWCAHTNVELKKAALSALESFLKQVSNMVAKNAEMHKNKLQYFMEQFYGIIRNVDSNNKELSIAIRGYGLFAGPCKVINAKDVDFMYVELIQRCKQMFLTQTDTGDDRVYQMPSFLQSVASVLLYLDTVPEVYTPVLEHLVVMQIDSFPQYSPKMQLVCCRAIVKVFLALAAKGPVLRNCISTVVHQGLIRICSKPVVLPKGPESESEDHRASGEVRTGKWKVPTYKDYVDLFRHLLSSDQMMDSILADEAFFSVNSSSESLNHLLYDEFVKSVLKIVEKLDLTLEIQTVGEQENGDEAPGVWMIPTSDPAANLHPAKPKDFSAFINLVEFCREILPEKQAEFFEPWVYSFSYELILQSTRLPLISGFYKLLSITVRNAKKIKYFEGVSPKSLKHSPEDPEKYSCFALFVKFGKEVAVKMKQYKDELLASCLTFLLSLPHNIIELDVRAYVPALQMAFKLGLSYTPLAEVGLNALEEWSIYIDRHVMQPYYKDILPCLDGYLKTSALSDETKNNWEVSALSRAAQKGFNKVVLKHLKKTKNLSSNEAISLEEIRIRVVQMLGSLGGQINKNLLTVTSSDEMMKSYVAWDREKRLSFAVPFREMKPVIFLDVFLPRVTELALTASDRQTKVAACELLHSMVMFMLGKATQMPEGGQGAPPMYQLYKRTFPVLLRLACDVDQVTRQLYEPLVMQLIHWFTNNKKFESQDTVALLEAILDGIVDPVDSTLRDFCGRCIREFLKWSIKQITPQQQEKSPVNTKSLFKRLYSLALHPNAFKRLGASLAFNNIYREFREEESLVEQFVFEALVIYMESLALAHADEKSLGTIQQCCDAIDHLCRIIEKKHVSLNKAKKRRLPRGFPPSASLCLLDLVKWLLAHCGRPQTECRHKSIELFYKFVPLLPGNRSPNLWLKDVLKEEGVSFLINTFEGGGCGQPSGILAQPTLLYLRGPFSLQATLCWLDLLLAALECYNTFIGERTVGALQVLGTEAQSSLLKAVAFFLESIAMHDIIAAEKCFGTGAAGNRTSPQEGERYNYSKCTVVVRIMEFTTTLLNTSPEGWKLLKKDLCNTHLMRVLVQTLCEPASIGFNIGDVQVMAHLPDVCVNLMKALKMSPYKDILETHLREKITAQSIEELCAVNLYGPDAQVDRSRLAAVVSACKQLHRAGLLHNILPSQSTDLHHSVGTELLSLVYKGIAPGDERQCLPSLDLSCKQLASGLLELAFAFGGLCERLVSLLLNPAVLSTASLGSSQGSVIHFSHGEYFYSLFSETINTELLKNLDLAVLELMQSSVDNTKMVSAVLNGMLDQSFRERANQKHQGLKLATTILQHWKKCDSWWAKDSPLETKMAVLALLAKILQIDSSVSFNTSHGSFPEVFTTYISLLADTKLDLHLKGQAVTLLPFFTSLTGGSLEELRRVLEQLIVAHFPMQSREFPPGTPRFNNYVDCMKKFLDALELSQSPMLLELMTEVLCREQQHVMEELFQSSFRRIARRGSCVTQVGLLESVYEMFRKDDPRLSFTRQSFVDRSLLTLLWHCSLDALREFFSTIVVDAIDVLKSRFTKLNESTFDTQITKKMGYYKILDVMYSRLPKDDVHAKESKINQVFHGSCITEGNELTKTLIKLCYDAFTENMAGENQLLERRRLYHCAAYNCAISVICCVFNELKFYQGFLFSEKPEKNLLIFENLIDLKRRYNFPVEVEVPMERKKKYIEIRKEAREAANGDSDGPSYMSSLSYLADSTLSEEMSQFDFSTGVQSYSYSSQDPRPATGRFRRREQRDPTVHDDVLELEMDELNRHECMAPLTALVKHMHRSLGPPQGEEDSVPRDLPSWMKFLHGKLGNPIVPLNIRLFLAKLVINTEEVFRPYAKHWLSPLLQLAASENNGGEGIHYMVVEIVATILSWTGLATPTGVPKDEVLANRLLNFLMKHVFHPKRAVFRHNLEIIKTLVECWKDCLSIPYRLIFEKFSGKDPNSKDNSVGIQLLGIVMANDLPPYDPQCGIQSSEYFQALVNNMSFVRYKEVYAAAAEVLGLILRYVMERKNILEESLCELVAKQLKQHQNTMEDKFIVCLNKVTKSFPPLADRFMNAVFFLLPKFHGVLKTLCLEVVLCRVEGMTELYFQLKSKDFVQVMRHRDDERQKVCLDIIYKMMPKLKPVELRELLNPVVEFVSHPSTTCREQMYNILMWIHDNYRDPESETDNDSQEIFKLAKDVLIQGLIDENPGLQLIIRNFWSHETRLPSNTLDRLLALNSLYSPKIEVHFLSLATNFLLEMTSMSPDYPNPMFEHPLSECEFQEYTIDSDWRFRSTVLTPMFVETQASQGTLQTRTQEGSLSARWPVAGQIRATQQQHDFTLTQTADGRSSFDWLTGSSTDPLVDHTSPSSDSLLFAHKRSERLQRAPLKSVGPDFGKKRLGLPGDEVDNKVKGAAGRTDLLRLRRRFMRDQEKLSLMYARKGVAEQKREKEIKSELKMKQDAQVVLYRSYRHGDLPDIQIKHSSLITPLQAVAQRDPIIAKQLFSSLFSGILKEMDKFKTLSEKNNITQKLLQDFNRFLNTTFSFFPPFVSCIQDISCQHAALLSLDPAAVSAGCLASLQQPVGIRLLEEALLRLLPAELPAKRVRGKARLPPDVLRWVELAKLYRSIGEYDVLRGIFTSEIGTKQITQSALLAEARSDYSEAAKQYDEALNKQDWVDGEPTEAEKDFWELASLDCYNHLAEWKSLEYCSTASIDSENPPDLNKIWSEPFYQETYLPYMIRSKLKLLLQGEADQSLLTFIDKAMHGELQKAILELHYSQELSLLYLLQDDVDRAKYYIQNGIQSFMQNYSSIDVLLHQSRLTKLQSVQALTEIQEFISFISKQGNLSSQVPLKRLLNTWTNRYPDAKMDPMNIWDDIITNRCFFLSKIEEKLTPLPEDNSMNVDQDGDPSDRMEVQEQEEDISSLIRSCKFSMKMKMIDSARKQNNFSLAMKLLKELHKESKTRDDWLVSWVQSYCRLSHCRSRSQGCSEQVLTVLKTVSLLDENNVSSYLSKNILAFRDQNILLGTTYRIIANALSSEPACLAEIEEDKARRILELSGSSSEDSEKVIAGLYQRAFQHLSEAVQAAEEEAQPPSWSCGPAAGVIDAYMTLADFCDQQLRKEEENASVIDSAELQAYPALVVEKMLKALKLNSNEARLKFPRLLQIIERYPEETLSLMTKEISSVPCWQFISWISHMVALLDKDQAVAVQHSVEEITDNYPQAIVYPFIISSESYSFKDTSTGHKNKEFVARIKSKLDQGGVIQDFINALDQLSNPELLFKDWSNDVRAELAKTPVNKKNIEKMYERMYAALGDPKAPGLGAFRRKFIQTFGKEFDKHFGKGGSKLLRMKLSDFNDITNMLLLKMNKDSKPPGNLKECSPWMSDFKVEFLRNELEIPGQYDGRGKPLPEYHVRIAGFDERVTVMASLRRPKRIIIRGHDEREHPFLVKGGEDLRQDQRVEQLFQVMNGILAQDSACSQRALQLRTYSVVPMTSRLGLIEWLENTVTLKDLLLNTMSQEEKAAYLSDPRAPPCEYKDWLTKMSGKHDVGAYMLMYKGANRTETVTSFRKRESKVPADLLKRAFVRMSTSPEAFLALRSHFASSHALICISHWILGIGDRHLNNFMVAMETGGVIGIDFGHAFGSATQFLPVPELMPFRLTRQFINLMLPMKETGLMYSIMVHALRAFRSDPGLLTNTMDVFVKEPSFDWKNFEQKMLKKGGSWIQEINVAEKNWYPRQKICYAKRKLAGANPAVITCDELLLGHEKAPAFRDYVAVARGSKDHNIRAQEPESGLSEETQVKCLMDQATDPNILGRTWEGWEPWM

With `C[C@H]1COCCN1c1nc(-c2ccc(NC(=O)NC3CC3)cc2)nc2c1CS(=O)(=O)CC2` [Example 4, (S)-1-cyclopropyl-3-(4-(4-(3-methylmorpholino)-6,6-dioxido-7,8-dihydro-5H-thiopyrano[4,3-d]pyrimidin-2-yl)phenyl)urea], the IC50 against mTOR was below 100 nM; in assay [1], above 10000 nM; in assay [2], 100 to 1000 nM.
Regarding `C[C@H]1COCCN1c1nc(-c2ccc(NC(=O)NC3CC3)cc2)nc2c1SCCC2` [Example 8, (S)-1-cyclopropyl-3-(4-(4-(3-methylmorpholino)-7,8-dihydro-6H-thiopyrano[3,2-d]pyrimidin-2-yl)phenyl)urea], the IC50 is below 100 nM at mTOR, above 10000 nM in assay [1] and below 100 nM in assay [2].
For `CCNC(=O)Nc1ccc(-c2nc3c(c(N4CCOC[C@@H]4C)n2)CS(=O)(=O)C3)cc1` [Example 11, (S)-1-ethyl-3-(4-(4-(3-methylmorpholino)-6,6-dioxido-5,7-dihydrothieno[3,4-d]pyrimidin-2-yl)phenyl)urea], the IC50 in assay [1] was above 10000 nM; in assay [2] it was below 100 nM.
Regarding `CNC(=O)Nc1ccc(-c2nc3c(c(N4CCOC[C@@H]4C)n2)CS(=O)(=O)C3)cc1` [Example 12, (S)-1-methyl-3-(4-(4-(3-methylmorpholino)-6,6-dioxido-5,7-dihydrothieno[3,4-d]pyrimidin-2-yl)phenyl)urea], the IC50 is below 100 nM against mTOR, above 10000 nM in assay [1] and 100 to 1000 nM in assay [2].
For `C[C@H]1COCCN1c1nc(-c2ccc(NC(=O)NCCO)cc2)nc2c1CS(=O)(=O)C2` [Example 13, (S)-1-(2-hydroxyethyl)-3-(4-(4-(3-methylmorpholino)-6,6-dioxido-5,7-dihydrothieno[3,4-d]pyrimidin-2-yl)phenyl)urea] the same measures were below 100 nM, 1000 to 10000 nM and 1000 to 10000 nM.
For `C[C@H]1COCCN1c1nc(-c2ccc(NC(=O)NCCF)cc2)nc2c1CS(=O)(=O)C2` [Example 14, (S)-1-(2-fluoroethyl)-3-(4-(4-(3-methylmorpholino)-6,6-dioxido-5,7-dihydrothieno[3,4-d]pyrimidin-2-yl)phenyl)urea] the same measures were below 100 nM, above 3000 nM and 100 to 1000 nM.
For `CCNC(=O)Nc1ccc(-c2nc3c(c(N4CC5CCC(C4)O5)n2)CS(=O)(=O)C3)cc1` [Example 15, 1-(4-(4-(8-oxa-3-azabicyclo[3.2.1]octan-3-yl)-6,6-dioxido-5,7-dihydrothieno[3,4-d]pyrimidin-2-yl)phenyl)-3-ethylurea] the same measures were below 100 nM, above 10000 nM and below 100 nM.
Take `O=C(NCCO)Nc1ccc(-c2nc3c(c(N4CC5CCC(C4)O5)n2)CS(=O)(=O)C3)cc1` [Example 16, 1-(4-(4-(8-oxa-3-azabicyclo[3.2.1]octan-3-yl)-6,6-dioxido-5,7-dihydrothieno[3,4-d]pyrimidin-2-yl)phenyl)-3-(2-hydroxyethyl)urea]: the figures for the IC50 (against mTOR; in assay [1]; in assay [2]) were below 100 nM, above 10000 nM and 1000 to 10000 nM, respectively.
For `O=C(Nc1ccc(-c2nc3c(c(N4CCOCC4)n2)CS(=O)(=O)C3)cc1)NC1CC1` [Example 18, 1-cyclopropyl-3-(4-(4-morpholino-6,6-dioxido-5,7-dihydrothieno[3,4-d]pyrimidin-2-yl)phenyl)urea] the same measures were below 100 nM, above 10000 nM and 100 to 1000 nM.
For `O=C(NCCF)Nc1ccc(-c2nc3c(c(N4CC5CCC(C4)O5)n2)CS(=O)(=O)C3)cc1` [Example 22, 1-(4-(4-(8-oxa-3-azabicyclo[3.2.1]octan-3-yl)-6,6-dioxido-5,7-dihydrothieno[3,4-d]pyrimidin-2-yl)phenyl)-3-(2-fluoroethyl)urea] the same measures were below 100 nM, above 10000 nM and 100 to 1000 nM.
With `CC(C)NC(=O)Nc1ccc(-c2nc3c(c(N4CCOC[C@@H]4C)n2)CS(=O)(=O)C3)cc1` [Example 25, (S)-1-isopropyl-3-(4-(4-(3-methylmorpholino)-6,6-dioxido-5,7-dihydrothieno[3,4-d]pyrimidin-2-yl)phenyl)urea], the IC50 (on mTOR; in assay [2]) was 100 to 1000 nM each time.
Regarding `O=C(Nc1ccc(-c2nc3c(c(N4C5CCC4COC5)n2)CS(=O)(=O)C3)cc1)NC1CC1` [Example 26, 1-(4-(4-(3-oxa-8-azabicyclo[3.2.1]octan-8-yl)-6,6-dioxido-5,7-dihydrothieno[3,4-d]pyrimidin-2-yl)phenyl)-3-cyclopropylurea], the IC50 on mTOR is below 100 nM; in assay [1], above 10000 nM; in assay [2] it was below 100 nM.
For `C[C@H]1COCCN1c1nc(-c2ccc(NC(=O)NCCCF)cc2)nc2c1CS(=O)(=O)C2` [Example 28, (S)-1-(3-fluoropropyl)-3-(4-(4-(3-methylmorpholino)-6,6-dioxido-5,7-dihydrothieno[3,4-d]pyrimidin-2-yl)phenyl)urea], the IC50 on mTOR is 100 to 1000 nM; in assay [1], above 10000 nM; in assay [2] it was 100 to 1000 nM.
Regarding `O=C(NCCCF)Nc1ccc(-c2nc3c(c(N4CC5CCC(C4)O5)n2)CS(=O)(=O)C3)cc1` [Example 29, 1-(4-(4-(8-oxa-3-azabicyclo[3.2.1]octan-3-yl)-6,6-dioxido-5,7-dihydrothieno[3,4-d]pyrimidin-2-yl)phenyl)-3-(3-fluoropropyl)urea], the IC50 against mTOR is 100 to 1000 nM; in assay [1], above 10000 nM; in assay [2], 100 to 1000 nM.
As to `C[C@H]1COCCN1c1nc(-c2ccc(NC(=O)NC3CC3)cc2)nc2c1CS(=O)(=O)C2(C)C` [Example 30, (S)-1-cyclopropyl-3-(4-(7,7-dimethyl-4-(3-methylmorpholino)-6,6-dioxido-5,7-dihydrothieno[3,4-d]pyrimidin-2-yl)phenyl)urea], the IC50 (against mTOR; in assay [2]) was below 100 nM in each case.
Consider `CC1c2c(nc(-c3ccc(NC(=O)NC4CC4)cc3)nc2N2CCOCC2)CS1(=O)=O` (centres unmarked) [Example 31, 1-cyclopropyl-3-(4-(5-methyl-4-morpholino-6,6-dioxido-5,7-dihydrothieno[3,4-d]pyrimidin-2-yl)phenyl)urea], for which the values for the IC50 (at mTOR; in assay [1]; in assay [2]) were 100 to 1000 nM, above 10000 nM and below 100 nM, respectively.
For `CCC1COCCN1c1nc(-c2ccc(NC(=O)NC3CC3)cc2)nc2c1C(C)S(=O)(=O)C2` (centres unmarked) [Example 32, 1-cyclopropyl-3-(4-(4-(3-ethylmorpholino)-5-methyl-6,6-dioxido-5,7-dihydrothieno[3,4-d]pyrimidin-2-yl)phenyl)urea] the same measures were below 100 nM, above 10000 nM and below 100 nM.
For `CC1c2c(nc(-c3ccc(NC(=O)NC4CC4)cc3)nc2N2C3CCC2COC3)CS1(=O)=O` (centres unmarked) [Example 33, 1-(4-(4-(3-oxa-8-azabicyclo[3.2.1]octan-8-yl)-5-methyl-6,6-dioxido-5,7-dihydrothieno[3,4-d]pyrimidin-2-yl)phenyl)-3-cyclopropylurea], the IC50 (against mTOR; in assay [2]) was below 100 nM throughout.
With `CC1c2c(nc(-c3ccc(NC(=O)NC4CC4)cc3)nc2N2CC3CCC(C2)O3)CS1(=O)=O` (centres unmarked) [Example 34, 1-(4-(4-(8-oxa-3-azabicyclo[3.2.1]octan-3-yl)-5-methyl-6,6-dioxido-5,7-dihydrothieno[3,4-d]pyrimidin-2-yl)phenyl)-3-cyclopropylurea], the half-inhibitory concentration (IC50) (on mTOR; in assay [2]) was below 100 nM throughout.
As for `C[C@H]1COCCN1c1nc(-c2ccc(NC(=O)Nc3cccnc3)cc2)nc2c1CS(=O)(=O)C2` [Example 36, (S)-1-(4-(4-(3-methylmorpholino)-6,6-dioxido-5,7-dihydrothieno[3,4-d]pyrimidin-2-yl)phenyl)-3-(pyridin-3-yl)urea], the figures for the IC50 (on mTOR; in assay [1]) were below 100 nM and above 10000 nM, respectively.
For `C[C@H]1COCCN1c1nc(-c2ccc(NC(=O)NC3CC3)cc2)nc2c1S(=O)(=O)C(C)(C)C2` [Example 37, (S)-1-cyclopropyl-3-(4-(6,6-dimethyl-4-(3-methylmorpholino)-5,5-dioxido-6,7-dihydrothieno[3,2-d]pyrimidin-2-yl)phenyl)urea] the same measures were 100 to 1000 nM and above 10000 nM.
